Measured values: PubChem BioAssay (NCI)
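Step 1: Grow cells in 96-well plates. Step 2: Expose to compound for 48 hours at 5 concentrations. Step 3: Interpolate endpoints linearly; if unreached, use highest concentration. GI50: concentration for 50% inhibition of growth. TGI marks complete inhibition of growth.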

How the values were obtained:
Assay in all cases: growth of human tumour cells (NCI), 48 h
COLO 205 colon = tested on: COLO 205 colon
HL-60(TB) leukemia = tested on: HL-60(TB) leukemia
NCI-H522 lung = tested on: NCI-H522 lung
RPMI-8226 leukemia = tested on: RPMI-8226 leukemia
SF-268 CNS = tested on: SF-268 CNS
SK-MEL-28 melanoma = tested on: SK-MEL-28 melanoma
U251 CNS = tested on: U251 CNS
UACC-62 melanoma = tested on: UACC-62 melanoma
OVCAR-5 ovarian = tested on: OVCAR-5 ovarian
MDA-MB-435 = tested on: MDA-MB-435

Row | SMILES | TGI (COLO 205 colon) | TGI (HL-60(TB) leukemia) | TGI (NCI-H522 lung) | TGI (RPMI-8226 leukemia) | TGI (SF-268 CNS) | TGI (SK-MEL-28 melanoma) | TGI (U251 CNS) | TGI (UACC-62 melanoma) | TGI (OVCAR-5 ovarian) | TGI (MDA-MB-435) | GI50 (OVCAR-5 ovarian) | GI50 (RPMI-8226 leukemia) | GI50 (SF-268 CNS) | GI50 (SK-MEL-28 melanoma) | GI50 (U251 CNS) | GI50 (UACC-62 melanoma) | GI50 (NCI-H522 lung) | GI50 (COLO 205 colon) | GI50 (MDA-MB-435)
1 | CC(C)CCC[C@@H](C)C1CCC2[C@@H]3CC=C4C[C@@H](OC(=O)CCC(=O)NCC[N+](C)(C)CCCS(=O)(=O)[O-])CC[C@]4(C)C3CC[C@@]21C (stereo partly drawn) | 40.3 µM | 36.6 µM | 73 µM | 45.9 µM | 39.7 µM | 32.9 µM | 33.9 µM | 50.3 µM |  |  |  |  |  |  |  |  |  |  | 
2 | CCOC(=O)C(=C=Cc1cccs1)C(=O)c1ccccc1 | 31.4 µM | 80.9 µM | 28.3 µM | 44.5 µM | 33.2 µM | 28 µM | 31.3 µM | 30.3 µM | 28.5 µM |  |  |  |  |  |  |  |  |  | 
3 | CC(=O)O/N=C1\C=Cc2c(no[n+]2[O-])C1=O | 22 µM |  | 32.8 µM | 62 µM | 38.1 µM | 36.9 µM |  | 30.2 µM | 32.7 µM | 36 µM |  |  |  |  |  |  |  |  | 
4 | c1cc(C2O[C@H]3CCCN3[C@@H]2c2ccncc2)ccn1 (stereo partly drawn) | > 100 µM |  | > 100 µM | > 100 µM | > 100 µM | > 100 µM | > 100 µM | > 100 µM | > 100 µM |  |  |  |  |  |  |  |  |  | 
5 | CC(C)(C)NC(=O)C12C3C4C1C1C2C3C41I (stereo not drawn) | > 100 µM | > 100 µM | > 100 µM | > 100 µM |  | > 100 µM | > 100 µM |  | > 100 µM |  |  |  |  |  |  |  |  |  | 
6 | COC(=O)CC[C@@H](NC(=O)C(C)NC(=O)COC1C(O)C(COC(=O)CCCCCCCCCCNC(=O)c2ccc([N+](=O)[O-])c3[nH]c4cc(Br)ccc4c(=O)c23)OC(OCc2ccccc2)C1NC(C)=O)C(N)=O (stereo partly drawn) | > 100 µM | 51.4 µM | > 100 µM | > 100 µM | > 100 µM | > 100 µM | > 100 µM | > 100 µM | > 100 µM |  |  |  |  |  |  |  |  |  | 
7 | CC(=O)OCC1OC(n2c(-c3ccc(N)cc3)cc(-c3ccco3)c(C#N)c2=O)C(OC(C)=O)C(OC(C)=O)C1OC(C)=O (stereo not drawn) | > 50 µM |  | > 50 µM |  | > 50 µM | > 50 µM | 29.8 µM | > 50 µM | > 50 µM |  |  |  |  |  |  |  |  |  | 
8 | CC(=O)NC1=NC(=O)/C(=C/c2ccc(Cl)cc2Cl)N1C | > 100 µM | 7.37 µM | > 100 µM |  | > 100 µM |  | > 100 µM | 88.2 µM | > 100 µM | > 100 µM |  |  |  |  |  |  |  |  | 
9 | Cn1c(=O)c2[nH]c(Nc3ccccc3)nc2n(C)c1=O | > 10 µM | > 10 µM |  | > 10 µM | > 10 µM | > 10 µM |  | > 10 µM |  | > 10 µM |  |  |  |  |  |  |  |  | 
10 | OCCOCn1nc(-c2ccccc2)nc1-c1cnccn1 | > 100 µM | > 100 µM | > 100 µM | > 100 µM | > 100 µM | > 100 µM | > 100 µM | > 100 µM | > 100 µM |  |  |  |  |  |  |  |  |  | 
11 | Cc1ccc(NC(=O)C(=O)C2C(=O)C3=C(CC2(C)C)NC2C=CC=CC2S3)c(C)c1 (stereo not drawn) | > 100 µM | > 100 µM | > 100 µM |  | > 100 µM | > 100 µM | > 100 µM | > 100 µM |  | > 100 µM |  |  |  |  |  |  |  |  | 
12 | COc1cc(OC)cc(-c2n[nH]nc2-c2ccc3c(c2)OCO3)c1 |  |  |  | 22.1 µM | > 100 µM | 43.5 µM | 11.2 µM | 30.8 µM | > 100 µM |  | 1470 nM | 326 nM | 2.37 µM | 4440 nM | 302 nM | 3.09 µM |  |  | 
13 | CCOc1cccc2cccnc12 | > 100 µM | > 100 µM | > 100 µM | > 100 µM | > 100 µM | > 100 µM |  | > 100 µM | > 100 µM |  |  |  |  |  |  |  |  |  | 
14 | CCC(C)CNC1=C(NC(C)=O)C(=O)c2ccccc2C1=O (stereo not drawn) | > 100 µM | > 100 µM | > 100 µM |  | > 100 µM | > 100 µM | > 100 µM | > 100 µM |  |  |  |  |  |  |  |  |  |  | 
15 | O=C(/C=C(\O)C(=O)O)/C=C(\O)c1ccc(Cl)cc1 | > 100 µM | > 100 µM | > 100 µM | > 100 µM | > 100 µM | > 100 µM | > 100 µM | > 100 µM | > 100 µM |  |  |  |  |  |  |  |  |  | 
16 | COC(=O)c1ccc2n[se]nc2c1 |  | > 100 µM | > 100 µM | > 100 µM | > 100 µM | > 100 µM | > 100 µM | > 100 µM | > 100 µM |  |  |  |  |  |  |  |  |  | 
17 | O=C(CC1Sc2ccccc2NC1=O)Nc1ccc([N+](=O)[O-])cc1[N+](=O)[O-] (stereo not drawn) | > 100 µM | 41.9 µM |  | 32.3 µM | 30.9 µM | 31.8 µM | 30.3 µM | 28.8 µM | 62.3 µM |  |  |  |  |  |  |  |  |  | 
18 | Cc1cccc2c1NC(c1c(C)[nH]c3ccccc13)C2 (stereo not drawn) | > 100 µM | > 100 µM | > 100 µM | > 100 µM | > 100 µM | > 100 µM | > 100 µM | > 100 µM | > 100 µM |  |  |  |  |  |  |  |  |  | 
19 | COC(=O)C1=C(SC)SC2(C(=O)OC)C3C=C(C)C4C(N13)C42C(=O)OC (stereo not drawn) | > 100 µM | > 100 µM | > 100 µM | > 100 µM | > 100 µM | > 100 µM | > 100 µM | > 100 µM | > 100 µM |  |  |  |  |  |  |  |  |  | 
20 | CC1=NN(C(=O)CC(=O)Nc2ccccc2)C(=O)C1N=Nc1ccc(S(N)(=O)=O)cc1 (stereo not drawn) | > 100 µM | > 100 µM | > 100 µM | > 100 µM | > 100 µM | > 100 µM | > 100 µM | 92.6 µM | > 100 µM |  |  |  |  |  |  |  |  |  | 
21 | COc1cc2c(cc1OC)[C@@H]1[C@H](C2=O)c2ccc([N+](=O)[O-])cc2C(=O)N1CCCBr |  |  | 29.4 µM | 1.87 µM | > 39.4 µM | > 100 µM | 1.39 µM | 1.16 µM | > 100 µM |  | 1640 nM | 145 nM |  | 2540 nM | 134 nM | < 0.046 µM | 0.574 µM |  | 
22 | COC(=O)C1=C(O)C(C(=O)OC)[C@@]2(O)[C@@H](C(=O)OC)C(c3ccccc3C(F)(F)F)C[C@@H]1[C@@H]2C(=O)OC (stereo partly drawn) | 2.27 µM |  | 33.2 µM | > 100 µM | 30.3 µM | 14.5 µM | 7.28 µM | 15 µM | 33.3 µM | 4.53 µM | 17400 nM | 2400 nM | 12.2 µM | 2130 nM | 2010 nM | 4.09 µM | 16.8 µM | 175 nM | 2060 nM
